Test results reported in patent publication US11730723B2, “Compounds and methods for treating viral infections” (priority 2020, dated 2023).
Values joined by “and” are separate entries in the source; they are usually repeats but may differ in a detail not shown here. Identical values can stand only once. Like-named read-outs stand apart in the source and are kept apart here.

Legend:
[1] = test system: dengue virus (DENV) serotype 2 strain D2S221; assay: Dengue virus D2S221 inhibition assay in Vero cells (immunostaining); conditions: read-out: D2S221 IC50
[2] = test system: H292 cells (NCI-H292); assay: Cytotoxicity in uninfected H292 cells (MTT); conditions: CC50, uninfected H292 cells
[3] = test system: HCoV-OC43; assay: HCoV-OC43 CPE assay in Huh-7 cells (neutral red uptake, 6 days); format: cell-based, human coronavirus (HCoV) OC43 strain; conditions: for Raw OD-Absorbance 490 nm: infected Huh-7, neutral red uptake, individual replicates
[4] = test system: alpha coronavirus 229E (CoV-229E); assay: CoV-229E virus-induced CPE inhibition in MRC-5 cells (XTT); conditions: 6 days
[5] = test system: HBV wild-type strain ayw1; assay: Primary anti-HBV assay in HepG2 2.2.15 cells (qPCR of HBV DNA); conditions: Hepatitis B virus, HepG2 2.2.15, 144 h
[6] = Cytotoxicity in HepG2 2.2.15 cells (MTS); format: cell-based; conditions: human, same assay plate
[7] = test system: Huh-7 cells; assay: Cytotoxicity / viability of uninfected Huh-7 cells (XTT, 6 days); conditions: for Viability (A490): control; for Viability of Huh-7 Cells (A490): raw absorbance 490 nm
[8] = in vitro; conditions: African green monkey
[9] = test system: Vero E6 cells; conditions: for viability of Vero E6 cells (percent of vehicle alone): 2-day treatment, mean ± SD of duplicates
[10] = test system: SARS-CoV-2 (USA-WA1/2020); assay: microbe, parasite or virus in culture; conditions: Severe acute respiratory syndrome coronavirus 2, Vero C1008, 48 h, read-out: Live SARS-CoV-2 Antiviral Assay IC50
[11] = test system: SARS-CoV-2 (USA-WA1/2020); conditions: Compound 1 at 25 μM; HCQ at 5 μM; remdesivir 10 μM
[12] = test system: MRC-5 cells; assay: Cell viability of uninfected drug control MRC-5 cells (XTT), TC50; conditions: read-out: TC50, uninfected MRC-5 cells, 6 days
[13] = Cytotoxicity on Huh7 cells (CellTiter Glo); conditions: human
[14] = test system: HCoV 229E; assay: HCoV 229E CPE assay in MRC-5 cells (CellTiter Glo); format: cell-based, human coronavirus (HCoV) 229E; conditions: unidentified human coronavirus, MRC5, read-out: HCoV 229E CPE assay EC50
[15] = Cytotoxicity on MRC-5 cells (CellTiter Glo); conditions: human
[16] = test system: HCoV OC43; assay: HCoV OC43 CPE assay in Huh7 cells (CellTiter Glo); format: cell-based, human coronavirus (HCoV) OC43; conditions: Betacoronavirus 1, OC43, Huh-7, read-out: HCoV OC43 CPE Assay EC50
[17] = test system: HCoV-OC43; assay: HCoV-OC43 efficacy in H292 cells (MTT, 6 days); format: cell-based, HCoV-OC43 (Betacoronavirus 1); conditions: Betacoronavirus 1, OC43, NCI-H292, read-out: Efficacy

Compound: CCN(CC)CCCC(C)Nc1ccnc2cc(Cl)ccc12 (stereo not drawn) [Chloroquine diphosphate]
- IC50 [1]: 23700 nM

Compound: CCN(CC)CCCC(C)Nc1ccnc2cc(Cl)ccc12 (stereo not drawn) [Chloroquine]
- Cytotoxicity [2]: 46.04 µM
- Inhibition of OC43 Virus-Induced CPE in Huh-7 Cells ([3]; CQ 5 μM, relative to uninfected cells (mock), listed as CQ): 87.8%
- Raw OD-Absorbance 490 nm ([3]; CQ 5 μM, listed as CQ): 0.693 and 0.689
- EC50 [4]: 490 nM

Compound: Nc1ccn([C@@H]2CS[C@H](CO)O2)c(=O)n1 [Compound 3TC, Lamivudine]
- EC50 [5]: 28.3 nM
- EC90 [5]: > 2000 nM
- CC50 [6]: > 2000 nM

Compound: CC[C@H]1CN2CCc3cc(OC)c(OC)cc3[C@@H]2C[C@@H]1C[C@H]1NCCc2cc(OC)c(OC)cc21 [Emetine]
- Viability (A490) ([7]; 1 μM, percentage viability vs medium only): 18.3 ± 0.3%
- Viability (A490) ([7]; 1 μM, raw absorbance, individual replicates): 0.176 and 0.179
- Viability (A490) ([7]; 5 μM, percentage viability vs medium only): 8.2 ± 0.7%
- Viability (A490) ([7]; 5 μM, raw absorbance, individual replicates): 0.104 and 0.111
- cell viability blocked / inhibited ([7]; cytotoxic control, XTT, tested at 5 μM): more than 90%

Compound: C=C1[C@H](CO)[C@@H](O)C[C@@H]1n1cnc2c(=O)[nH]c(N)nc21 [Entecavir]
- EC50 [5]: 0.44 nM
- EC90 [5]: > 1000 nM
- CC50 [6]: > 1000 nM

Compound: CCN(CCO)CCCC(C)Nc1ccnc2cc(Cl)ccc12 (stereo not drawn) [HCQ, hydroxychloroquine]
- CC50 [8]: > 10000 nM
- viability of Vero E6 cells (percent of vehicle alone) ([9]; 0.16 μM): 103.9 ± 6.9%
- viability of Vero E6 cells (percent of vehicle alone) ([9]; 0.31 μM): 102.3 ± 4.6%
- viability of Vero E6 cells (percent of vehicle alone) ([9]; 0.63 μM): 103.2 ± 3.4%
- viability of Vero E6 cells (percent of vehicle alone) ([9]; 1.25 μM): 100.4 ± 0.5%
- viability of Vero E6 cells (percent of vehicle alone) ([9]; 2.5 μM): 94.4 ± 7.9%
- viability of Vero E6 cells (percent of vehicle alone) ([9]; 5 μM): 93.4 ± 6.5%
- viability of Vero E6 cells (percent of vehicle alone) ([9]; 10 μM): 93.8 ± 6.0%
- viability of Vero E6 cells (in words) ([9]; Compound 1 at concentrations lower than 25 μM, HCQ at all concentrations tested): not significantly changed
- IC50 [10]: ~3000 nM
- prevention of the SARS-CoV-2 induced CPE (in words) [11]: prevented most of the virus-induced CPE

Compound: CCC(CC)COC(=O)[C@H](C)N[P@](=O)(OC[C@H]1O[C@@](C#N)(c2ccc3c(N)ncnn23)[C@H](O)[C@@H]1O)Oc1ccccc1 [Remdesivir]
- CC50 [12]: > 2000 nM
- Cytotoxicity [2]: >20 µM
- CC50 [13]: 6170 nM
- EC50 [14]: 20 nM
- CC50 [15]: 27900 nM
- EC50 [16]: 20 nM
- EC50 [17]: 37500 nM
- EC50 [4]: 130 nM

Compound: NC(=O)c1ncn([C@@H]2O[C@H](CO)[C@@H](O)[C@H]2O)n1 [Ribavirin]
- IC50 [1]: 71100 nM

Compound: CCN(CC)CCNC(=O)c1c(C)[nH]c(/C=C2\C(=O)Nc3ccc(F)cc32)c1C [Sunitinib]
- CC50 [12]: 1320 nM
- Cytotoxicity [2]: 10 to 50 µM
- IC50 [1]: 4060 nM
- EC50 [4]: 630 nM

Compound: Sunitinib maleate
- Viability of Huh-7 Cells (A490) ([7]; 0.01 μM, 6 days, individual replicates): 0.721 and 0.651
- Viability of Huh-7 Cells (A490) ([7]; 0.04 μM, 6 days, individual replicates): 0.738 and 0.751
- Viability of Huh-7 Cells (A490) ([7]; 0.12 μM, 6 days, individual replicates): 0.719 and 0.752
- Viability of Huh-7 Cells (A490) ([7]; 0.37 μM, 6 days, individual replicates): 0.732 and 0.765
- Viability of Huh-7 Cells (A490) ([7]; 1.1 μM, 6 days, individual replicates): 0.676 and 0.665
- Viability of Huh-7 Cells (A490) ([7]; 3.3 μM, 6 days, individual replicates): 0.642 and 0.601
- Viability of Huh-7 Cells (A490) ([7]; 10 μM, 6 days, individual replicates): 0.543 and 0.554
- Viability of Huh-7 Cells (A490) ([7]; 30 μM, 6 days, individual replicates): 0.058 and 0.055
- Viability of Huh-7 Cells (A490) ([7]; 90 μM, 6 days, individual replicates): 0.053 and 0.054
- CC50 ([7]; read-out: Cytotoxicity (Huh-7 cells) CC50, 6 days, XTT): 13000 nM
- Inhibition of OC43 Virus-Induced CPE in Huh-7 Cells ([3]; 0.01 μM, mean of duplicates): 1.1%
- Inhibition of OC43 Virus-Induced CPE in Huh-7 Cells ([3]; 0.04 μM, mean of duplicates): −1.2%
- Inhibition of OC43 Virus-Induced CPE in Huh-7 Cells ([3]; 0.12 μM, mean of duplicates): −0.1%
- Inhibition of OC43 Virus-Induced CPE in Huh-7 Cells ([3]; 0.4 μM, mean of duplicates): −2.4%
- Inhibition of OC43 Virus-Induced CPE in Huh-7 Cells ([3]; 1.1 μM, mean of duplicates): −1.0%
- Inhibition of OC43 Virus-Induced CPE in Huh-7 Cells ([3]; 3.3 μM, mean of duplicates): 17.9%
- Inhibition of OC43 Virus-Induced CPE in Huh-7 Cells ([3]; 10 μM, mean of duplicates): 21.4%
- Inhibition of OC43 Virus-Induced CPE in Huh-7 Cells ([3]; 30 μM, mean of duplicates): −7.8%
- EC50 ([3]; Huh-7 cells, 6 days, neutral red): > 30000 nM
- Raw OD-Absorbance 490 nm ([3]; 0.01 μM): 0.120
- Raw OD-Absorbance 490 nm ([3]; 0.04 μM): 0.094
- Raw OD-Absorbance 490 nm ([3]; 0.4 μM): 0.086 and 0.090
- Raw OD-Absorbance 490 nm ([3]; 1.1 μM): 0.094
- Raw OD-Absorbance 490 nm ([3]; 3.3 μM): 0.312 and 0.136
- Raw OD-Absorbance 490 nm ([3]; 10 μM): 0.214 and 0.280
- Raw OD-Absorbance 490 nm ([3]; 30 μM): 0.051 and 0.053
